The values that follow come from patent publication US7906556B2, “Methods of treating amyloidosis using cyclopropyl derivative aspartyl protease inhibitors” (Elan Pharmaceuticals, Inc., priority 2005, dated 2011).

SMILES strings stand for the structures. “And” between values parts separate entries of the source, which are not always exact repeats. Equal values may be shown once.

Broadly, the Kp is the ratio of the level in a tissue or fluid to that in plasma or blood. In general, AUC(0-t) refers to the area under the concentration-time curve up to a stated or last time point.

The first data set deals with beta-secretase versus catD. Kind of data set: Selectivity of compounds for inhibiting BACE over catD (ratio of IC50 values). Type of data set: biochemical. To be noted: each value is an average of four experimental runs; multiple values = more than one experiment. The procedure: Investigation of potential beta-secretase inhibitors produced compounds with increased selectivity for beta-secretase over other aspartyl proteases such as cathepsin D (catD), cathepsin E (catE), Human Immunodeficiency Viral (HIV) protease, and renin. Selectivity was calculated as a ratio of inhibition (IC50) values in which the inhibition of beta-secretase was compared to the inhibition of other aspartyl proteases.
The compounds of formula (I) can be selective for beta-secretase versus catD.
In the following examples, each value is an average of four experimental runs and multiple values for one compound indicate that more than one experiment was conducted.
Consider `CC(=O)NC(Cc1cc(F)cc(F)c1)C(O)CNC1(CCC(C)C)C2CCCC21` (stereo not drawn) [Example 3.1, N-(4-(6-isopentylbicyclo[3.1.0]hexan-6-ylamino)-1-(3,5-difluorophenyl)-3-hydroxybutan-2-yl)acetamide], for which the “Selectivity IC50 catD/IC50 BACE” value was > 3.7 and > 3.2.

Take `CC(=O)NC(Cc1cc(F)cc(F)c1)C(O)CNC1(CCCC(C)C)CC1` (stereo not drawn) [Example 3.2, N-(1-(3,5-difluorophenyl)-3-hydroxy-4-(1-(4-methylpentyl)cyclopropylamino)butan-2-yl)acetamide]: the “Selectivity IC50 catD/IC50 BACE” value is 1.1.

A further data set has as its system Madin-Darby Canine Kidney (MDCK) cells. Description: In vitro permeability across a monolayer of MDCK cells in a transwell device. To be noted: test compound 5 μM, 2 h at 37° C., apical to basolateral. It counts as in vitro ADME. The procedure:
(§1) Compounds were evaluated for permeability across a monolayer of Madin-Darby Canine Kidney (MDCK) cells in a transwell device following culturing for 4 days. Cells were grown in Dulbecco's Modified Eagle Media with Glutamax (Invitrogen Cat #10569-010) with 10% Heat Inactivated Fetal Bovine Serum (media kitchen) and Penicillin/streptomycin 40 units/mL (media kitchen) at 37° C. and 5% CO2, and were plated into 12 mm diameter transwell plates (12 wells/plate, Costar Cat#3401). A 0.5 mL of cell suspension (400,000 cells/mL) was placed on membrane and a 1.5 mL media in the bottom wells on day 1. On day 2 and day 3, cells were fed with new media. On day 4, the lower chambers were filled with modified Hank's Balanced Salt Solution (mHBSS, media kitchen) with or without 5 μM Cyclosporin A (CspA, Sigma Cat#C-3662). Media was removed from upper chambers and filled with mHBSS with or without CspA, and incubated 30 min at 37° C. with light shaking. Donor chambers were emptied, and filled with test compound at 5 μM in mHBSS. Lucifer Yellow (100 μM, LY, Sigma Cat#L-0144) was added to all of the upper chambers to test for monolayer integrity (tight junctions). Plates were incubated for 2 h at 37° C. with shaking. After 2 h, both the donor and receiver wells were sampled. The bottom chambers were read in a fluorometer to assess LY leakage, and then the media from all wells were assayed by LC/MS/MS to determine compound levels.
As for `CC(=O)NC(Cc1cc(F)cc(F)c1)C(O)CNC1(CCOCC(C)(C)C)CC1C` (single isomer, unassigned) [Example 3.8, N-(4-(2-methyl-1-(2-(neopentyloxy)ethyl)cyclopropylamino)-1-(3,5-difluorophenyl)-3-hydroxybutan-2-yl)acetamide], the “Permeability Forward A > B” value was 118.4 nm/s. For `CC(=O)NC(Cc1cc(F)cc(F)c1)C(O)CNC1(C(=O)NCCC(C)(C)C)CC1` (stereo not drawn) [Example 3.4, 1-(3-acetamido-4-(3,5-difluorophenyl)-2-hydroxybutylamino)-N-(3,3-dimethylbutyl)cyclopropanecarboxamide], the “Permeability Forward A > B” value is reported as 45.6 nm/s.

Tested on in the next data set: not listed separately
The description is as above. It counts as in vitro ADME, Canine. The conditions noted are these: dog, MDCK, test compound 5 μM, 2 h at 37° C., apical to basolateral, read-out: Permeability Forward A > B. The procedure: as §1
Consider `CC(=O)NC(Cc1cc(F)cc(F)c1)C(O)CNC1(CCOCC(C)(C)C)CC1C` (single isomer, unassigned) [Example 3.7, N-(4-(2-methyl-1-(2-(neopentyloxy)ethyl)cyclopropylamino)-1-(3,5-difluorophenyl)-3-hydroxybutan-2-yl)acetamide], for which the Papp A→B at 2 h, 5 μM came out at 81.8 nm/s. Consider `CC(=O)NC(Cc1cc(F)cc(F)c1)C(O)CNC1(CCCC(C)C)CC1` (stereo not drawn) [Example 3.2, N-(1-(3,5-difluorophenyl)-3-hydroxy-4-(1-(4-methylpentyl)cyclopropylamino)butan-2-yl)acetamide], for which the Papp A→B at 2 h, 5 μM came to 43.3 nm/s.

Turning to `CC(=O)NC(Cc1cc(F)cc(F)c1)C(O)CNC1(CSCC(C)(C)C)CC1` (stereo not drawn) [Example 3.3, N-(4-(1-((neopentylthio)methyl)cyclopropylamino)-1-(3,5-difluorophenyl)-3-hydroxybutan-2-yl)acetamide], the Papp A→B at 2 h, 5 μM came out at 101 nm/s. For the compound `CC(=O)NC(Cc1cc(F)cc(F)c1)C(O)CNC1(C(=O)NCCC(C)(C)C)CC1` (stereo not drawn) [Example 3.4, 1-(3-acetamido-4-(3,5-difluorophenyl)-2-hydroxybutylamino)-N-(3,3-dimethylbutyl)cyclopropanecarboxamide], the Papp A→B at 2 h, 5 μM turned out to be 33.3 nm/s. For `CC(=O)NC(Cc1cc(F)cc(F)c1)C(O)CNC1(Cc2cn(CC(C)(C)C)nn2)CC1` (stereo not drawn) [Example 3.6, N-(1-(3,5-difluorophenyl)-3-hydroxy-4-(1-((1-neopentyl-1H-1,2,3-triazol-4-yl)methyl)cyclopropylamino)butan-2-yl)acetamide], the Papp A→B at 2 h, 5 μM worked out at 43.1 nm/s. On the same count and under the same terms, to `CC(=O)NC(Cc1cc(F)cc(F)c1)C(O)CNC1(COCCC(C)(C)C)C2CCCC21` (stereo not drawn) [Example 3.9, N-(1-(3,5-difluorophenyl)-4-(6-((3,3-dimethylbutoxy)methyl)bicyclo[3.1.0]hexan-6-ylamino)-3-hydroxybutan-2-yl)acetamide] belongs 47.3 nm/s; to `CC(=O)NC(Cc1cc(F)cc(F)c1)C(O)CNC1(Cc2cc(C(C)(C)C)on2)CC1` (stereo not drawn) [Example 3.10, N-(4-(1-((5-tert-butylisoxazol-3-yl)methyl)cyclopropylamino)-1-(3,5-difluorophenyl)-3-hydroxybutan-2-yl)acetamide], 93.2 nm/s.

On to `CC(=O)NC(Cc1cc(F)cc(F)c1)C(O)CNC1(CCCCC(C)(C)C)CC1` (stereo not drawn) [Example 3.11, N-(1-(3,5-difluorophenyl)-4-(1-(5,5-dimethylhexyl)cyclopropylamino)-3-hydroxybutan-2-yl)acetamide], for which the Papp A→B at 2 h, 5 μM worked out at 33.1 nm/s. Regarding `CC(=O)NC(Cc1cc(F)cc(F)c1)C(O)CNC1(C/C=C/CC(C)(C)C)CC1` (stereo not drawn) [Example 3.12, N-(1-(3,5-difluorophenyl)-4-(1-(5,5-dimethylhex-2-enyl)cyclopropylamino)-3-hydroxybutan-2-yl)acetamide], the Papp A→B at 2 h, 5 μM was found to be 42.8 nm/s.

Take `CC(=O)NC(Cc1cc(F)cc(F)c1)C(O)CNC1(CCCn2cccn2)CC1` (stereo not drawn) [Example 3.13, N-(4-(1-(3-(1H-pyrazol-1-yl)propyl)cyclopropylamino)-1-(3,5-difluorophenyl)-3-hydroxybutan-2-yl)acetamide]: the Papp A→B at 2 h, 5 μM is 43.9 nm/s. Take `CC(=O)NC(Cc1cc(F)cc(F)c1)C(O)CNC1(CCCCn2cccn2)CC1` (stereo not drawn) [Example 3.14, N-(4-(1-(4-(1H-pyrazol-1-yl)butyl)cyclopropylamino)-1-(3,5-difluorophenyl)-3-hydroxybutan-2-yl)acetamide]: the Papp A→B at 2 h, 5 μM came to 34.7 nm/s.

Take `CC(=O)NC(Cc1cc(F)cc(F)c1)C(O)CNC1(CCOCC(C)(C)C)CC1` (stereo not drawn) [Example 3.15, N-(4-(1-(2-(neopentyloxy)ethyl)cyclopropylamino)-1-(3,5-difluorophenyl)-3-hydroxybutan-2-yl)acetamide]: the Papp A→B at 2 h, 5 μM is 97.4 nm/s. With `CC(=O)NC(Cc1cc(F)cc(F)c1)C(O)CNC1(C(=O)NCC(C)(C)C)CC1` (stereo not drawn) [Example 3.16, 1-(3-acetamido-4-(3,5-difluorophenyl)-2-hydroxybutylamino)-N-neopentylcyclopropanecarboxamide], the Papp A→B at 2 h, 5 μM stood at 61.5 nm/s. As to `CC(=O)NC(Cc1cc(F)cc(F)c1)C(O)CNC1(C(=O)N(C)c2ccccc2)CC1` (stereo not drawn) [Example 3.18, 1-(3-acetamido-4-(3,5-difluorophenyl)-2-hydroxybutylamino)-N-methyl-N-phenylcyclopropanecarboxamide], the Papp A→B at 2 h, 5 μM worked out at 45.6 nm/s. In the case of `CC(=O)NC(Cc1cc(F)cc(F)c1)C(O)CNC1(Cc2c(F)cccc2F)CC1` (stereo not drawn) [Example 3.19, N-(4-(1-(2,6-difluorobenzyl)cyclopropylamino)-1-(3,5-difluorophenyl)-3-hydroxybutan-2-yl)acetamide], the Papp A→B at 2 h, 5 μM amounted to 191 nm/s. `CC(=O)NC(Cc1cc(F)cc(F)c1)C(O)CNC1(Cc2ccccc2F)CC1` (stereo not drawn) [Example 3.20, N-(1-(3,5-difluorophenyl)-4-(1-(2-fluorobenzyl)cyclopropylamino)-3-hydroxybutan-2-yl)acetamide]: the Papp A→B at 2 h, 5 μM came out at 212 nm/s.

Tested on in another data set: not listed separately
Kind of data set: Brain to plasma ratio (AUC 0-6 h) in female FVB mice. It counts as in vivo. To be noted: 100 mpk dose.
Take `CC(=O)NC(Cc1cc(F)cc(F)c1)C(O)CNC1(CCCC(C)(C)C)CC1` (stereo not drawn) [Example 3.5, N-(1-(3,5-difluorophenyl)-4-(1-(4,4-dimethylpentyl)cyclopropylamino)-3-hydroxybutan-2-yl)acetamide]: the “Brain AUC (0-6 h)” value is 28 µM·h.

The data set is the same for the next values; noted with them: mouse, brain and plasma, 100 mg/kg, 100 mpk dose, AUC (0-6 h).
For `CC(=O)NC(Cc1cc(F)cc(F)c1)C(O)CNC1(CCCC(C)(C)C)CC1` (stereo not drawn) [Example 3.5, N-(1-(3,5-difluorophenyl)-4-(1-(4,4-dimethylpentyl)cyclopropylamino)-3-hydroxybutan-2-yl)acetamide], the Kp was 2.1.

Still in this data set, the particulars now being: mouse, plasma, 100 mg/kg, 100 mpk dose.
With `CC(=O)NC(Cc1cc(F)cc(F)c1)C(O)CNC1(CCCC(C)(C)C)CC1` (stereo not drawn) [Example 3.5, N-(1-(3,5-difluorophenyl)-4-(1-(4,4-dimethylpentyl)cyclopropylamino)-3-hydroxybutan-2-yl)acetamide], the AUC(0-t) is 13 µM·h.

For another data set, the target named is T1, P-gp (Mus musculus, UniProt P21447).
T1 construct: FVB wild-type littermates, which expresses P-gp at their blood-brain barrier (BBB); from tissue; host or cells: blood-brain barrier / brain of FVB wild-type mice, compared with mdr1 a/b (-/-) mice, in vivo
T1 sequence (P21447 whole entry): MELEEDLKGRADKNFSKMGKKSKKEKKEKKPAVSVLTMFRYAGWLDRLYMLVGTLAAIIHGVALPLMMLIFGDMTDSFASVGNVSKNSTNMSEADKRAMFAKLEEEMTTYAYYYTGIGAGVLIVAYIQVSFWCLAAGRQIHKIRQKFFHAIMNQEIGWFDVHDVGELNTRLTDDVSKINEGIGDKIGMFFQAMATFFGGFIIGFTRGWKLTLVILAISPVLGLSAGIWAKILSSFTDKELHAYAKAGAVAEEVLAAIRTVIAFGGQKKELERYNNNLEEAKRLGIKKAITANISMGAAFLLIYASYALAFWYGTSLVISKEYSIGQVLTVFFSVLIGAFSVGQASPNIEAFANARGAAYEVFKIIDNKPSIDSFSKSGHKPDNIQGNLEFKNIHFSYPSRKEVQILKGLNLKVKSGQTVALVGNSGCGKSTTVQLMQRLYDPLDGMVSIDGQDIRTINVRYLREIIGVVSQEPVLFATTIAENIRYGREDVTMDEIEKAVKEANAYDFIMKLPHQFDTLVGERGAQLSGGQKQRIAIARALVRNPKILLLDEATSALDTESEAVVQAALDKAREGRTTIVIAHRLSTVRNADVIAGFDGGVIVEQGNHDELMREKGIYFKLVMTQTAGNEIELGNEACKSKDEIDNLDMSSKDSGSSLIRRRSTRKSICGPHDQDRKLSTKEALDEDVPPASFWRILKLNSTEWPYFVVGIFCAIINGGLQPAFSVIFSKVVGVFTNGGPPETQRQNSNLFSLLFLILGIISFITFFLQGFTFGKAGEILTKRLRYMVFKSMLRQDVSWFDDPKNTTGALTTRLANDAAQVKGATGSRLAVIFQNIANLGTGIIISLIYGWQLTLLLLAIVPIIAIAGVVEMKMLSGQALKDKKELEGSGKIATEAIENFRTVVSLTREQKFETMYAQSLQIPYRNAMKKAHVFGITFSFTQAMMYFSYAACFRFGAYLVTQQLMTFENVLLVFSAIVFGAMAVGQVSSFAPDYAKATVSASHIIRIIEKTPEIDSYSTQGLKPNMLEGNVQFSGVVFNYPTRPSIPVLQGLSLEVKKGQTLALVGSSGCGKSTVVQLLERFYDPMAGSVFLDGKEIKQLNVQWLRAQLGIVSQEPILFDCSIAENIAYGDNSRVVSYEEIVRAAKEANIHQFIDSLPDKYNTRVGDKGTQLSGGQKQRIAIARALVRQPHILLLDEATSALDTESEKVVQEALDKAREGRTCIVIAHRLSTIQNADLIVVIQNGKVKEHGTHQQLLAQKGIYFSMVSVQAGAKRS
Description: In vivo P-gp liability assessment in mdr1 a/b (-/-) and wild type FVB mouse. The conditions noted are these: mdr1 a/b (-/-) vs FVB wild-type mice, 2.5 mg/Kg IV, 5 min post administration, ratio of Cb/Cp. The procedure: Use of mdr1 (−/−) mouse and its FVB wild-type littermates, which expresses P-gp at their blood-brain barrier (BBB), can distinguish between a test compound of high P-gp liability from one with a more desirable low P-gp liability.
Test compounds are administered to both the mdr1 a/b (−/−) and the FVB wild-type mice (N=4/strain) intravenously at 2.5 mg/Kg through the tail vein. Plasma and brains are harvested at 5 min post administration. Test compound is extracted from tissue in parallel with calibration curves prepared from age-matched control tissues, then quantitated by LC/MS/MS. The ratio of brain concentration (Cb) to plasma concentration (Cp) is used as a measure of brain penetration according to the following formula: Brain Penetration (P)=Cb/Cp Therefore, a measure of brain penetration in the mdr1 (−/−) mouse relative to that of the wild-type animal represents an assessment of in vivo P-gp efflux, which is analogous to that determine in vitro with MDR1-MDCK cells. Calculations are made according to the following formula: Pmdr1/PFVB=In vivo Efflux
As to `CNCC[C@@H](Oc1ccccc1C)c1ccccc1` [atomoxetine], the “in vivo P-gp efflux (Pmdr1/PFVB)” value is 1.17.
